# Source: patent US9938281B2 (Merck Sharp & Dohme Corp., priority 2012, dated 2018)
# pIC50: −log10 of the molar value.
# Legend:
# PI3K-alpha = target: T1, PI3K-alpha (Homo sapiens, UniProt P42336); experiment: HTRF PI3K biochemical assay, alpha isoform; conditions: ratio PI3K-alpha IC50 value / PI3K-delta IC50 value
# T1 construct: purchased Upstate; Millipore 14-602
# PI3K-delta = target: T2, PI3K-delta (Homo sapiens, UniProt O00329); experiment: HTRF PI3K biochemical assay, delta isoform; conditions: form screened (neutral or TFA salt) given, read-out: PI3Kdelta IC50
# T2 construct: purchased Upstate; Millipore 14-604
# T2 sequence (O00329 whole entry, canonical isoform): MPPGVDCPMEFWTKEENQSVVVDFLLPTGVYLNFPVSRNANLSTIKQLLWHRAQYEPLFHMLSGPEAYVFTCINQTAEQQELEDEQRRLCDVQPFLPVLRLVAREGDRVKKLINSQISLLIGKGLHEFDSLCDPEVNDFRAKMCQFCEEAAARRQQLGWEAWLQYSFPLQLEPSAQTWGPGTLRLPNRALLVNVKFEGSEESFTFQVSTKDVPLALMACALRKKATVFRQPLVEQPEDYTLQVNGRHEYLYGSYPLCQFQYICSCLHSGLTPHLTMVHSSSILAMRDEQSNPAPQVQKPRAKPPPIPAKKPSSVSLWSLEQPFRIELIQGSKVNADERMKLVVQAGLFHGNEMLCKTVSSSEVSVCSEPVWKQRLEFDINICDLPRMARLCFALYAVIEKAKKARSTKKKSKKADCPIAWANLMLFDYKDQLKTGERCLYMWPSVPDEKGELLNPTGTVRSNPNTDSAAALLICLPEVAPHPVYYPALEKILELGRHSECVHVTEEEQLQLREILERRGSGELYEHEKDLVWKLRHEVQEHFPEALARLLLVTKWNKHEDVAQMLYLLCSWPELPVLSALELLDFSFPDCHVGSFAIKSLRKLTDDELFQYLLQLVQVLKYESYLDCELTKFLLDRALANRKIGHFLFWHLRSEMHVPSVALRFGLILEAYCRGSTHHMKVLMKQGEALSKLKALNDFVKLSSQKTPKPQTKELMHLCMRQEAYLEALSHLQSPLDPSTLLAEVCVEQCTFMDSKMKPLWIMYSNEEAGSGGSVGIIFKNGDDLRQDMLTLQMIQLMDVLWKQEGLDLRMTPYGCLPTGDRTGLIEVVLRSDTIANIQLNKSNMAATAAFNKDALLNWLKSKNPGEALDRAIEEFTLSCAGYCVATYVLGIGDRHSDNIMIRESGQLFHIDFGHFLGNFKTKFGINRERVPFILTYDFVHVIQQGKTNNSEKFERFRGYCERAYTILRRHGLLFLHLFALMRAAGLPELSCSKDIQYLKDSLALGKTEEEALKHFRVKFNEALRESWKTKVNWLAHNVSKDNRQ
# T2 sequence (P27986 whole entry partner, canonical isoform): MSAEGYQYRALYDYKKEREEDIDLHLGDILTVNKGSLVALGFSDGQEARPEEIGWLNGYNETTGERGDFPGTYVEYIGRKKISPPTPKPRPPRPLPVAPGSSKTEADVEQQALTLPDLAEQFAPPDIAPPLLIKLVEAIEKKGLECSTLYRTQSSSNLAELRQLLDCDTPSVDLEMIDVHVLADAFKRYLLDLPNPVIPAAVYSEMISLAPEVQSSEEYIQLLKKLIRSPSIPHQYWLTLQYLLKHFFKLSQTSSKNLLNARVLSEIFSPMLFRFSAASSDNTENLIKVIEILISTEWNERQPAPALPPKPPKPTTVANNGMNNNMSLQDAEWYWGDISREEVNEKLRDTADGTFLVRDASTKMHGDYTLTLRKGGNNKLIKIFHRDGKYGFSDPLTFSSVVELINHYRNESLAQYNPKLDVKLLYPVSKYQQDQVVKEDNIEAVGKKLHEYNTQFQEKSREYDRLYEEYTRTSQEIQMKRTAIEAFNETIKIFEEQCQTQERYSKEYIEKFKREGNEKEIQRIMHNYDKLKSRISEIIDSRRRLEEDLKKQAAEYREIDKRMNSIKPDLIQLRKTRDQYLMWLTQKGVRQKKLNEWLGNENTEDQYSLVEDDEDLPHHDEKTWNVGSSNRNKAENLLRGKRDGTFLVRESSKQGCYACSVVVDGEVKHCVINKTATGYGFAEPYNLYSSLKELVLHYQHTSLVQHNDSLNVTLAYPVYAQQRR
# T1 sequence (P42336 whole entry, canonical isoform): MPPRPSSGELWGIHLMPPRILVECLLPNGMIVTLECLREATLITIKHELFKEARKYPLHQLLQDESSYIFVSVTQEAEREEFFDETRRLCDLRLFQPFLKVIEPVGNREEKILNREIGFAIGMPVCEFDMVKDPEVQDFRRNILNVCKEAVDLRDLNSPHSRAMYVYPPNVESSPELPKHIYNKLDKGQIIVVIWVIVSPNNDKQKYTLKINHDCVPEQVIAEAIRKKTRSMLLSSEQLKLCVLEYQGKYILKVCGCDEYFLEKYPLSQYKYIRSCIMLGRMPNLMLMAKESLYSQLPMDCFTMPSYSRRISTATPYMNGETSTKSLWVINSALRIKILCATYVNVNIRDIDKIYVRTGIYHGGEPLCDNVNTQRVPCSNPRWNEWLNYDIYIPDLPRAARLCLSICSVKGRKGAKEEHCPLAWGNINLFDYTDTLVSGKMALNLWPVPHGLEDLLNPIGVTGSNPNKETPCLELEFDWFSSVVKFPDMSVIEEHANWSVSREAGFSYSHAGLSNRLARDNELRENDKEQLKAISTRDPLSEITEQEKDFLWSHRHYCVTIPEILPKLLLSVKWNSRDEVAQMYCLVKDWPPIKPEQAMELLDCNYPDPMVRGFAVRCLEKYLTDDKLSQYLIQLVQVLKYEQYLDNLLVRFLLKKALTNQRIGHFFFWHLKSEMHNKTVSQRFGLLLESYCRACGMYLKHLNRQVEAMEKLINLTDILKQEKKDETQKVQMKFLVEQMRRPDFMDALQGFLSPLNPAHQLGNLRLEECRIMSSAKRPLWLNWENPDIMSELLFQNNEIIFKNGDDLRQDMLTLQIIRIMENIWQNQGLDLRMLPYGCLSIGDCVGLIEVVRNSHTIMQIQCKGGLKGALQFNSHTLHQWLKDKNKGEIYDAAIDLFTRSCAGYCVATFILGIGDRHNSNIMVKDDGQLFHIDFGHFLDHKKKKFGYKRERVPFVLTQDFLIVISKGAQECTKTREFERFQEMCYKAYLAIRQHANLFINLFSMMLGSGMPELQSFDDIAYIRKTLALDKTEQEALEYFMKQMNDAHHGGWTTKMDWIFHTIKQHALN
# T1 sequence (P27986 whole entry partner, canonical isoform): as the sequence (P27986 whole entry partner, canonical isoform) above
Selectivity versus PI3Kalpha (PI3K-alpha),pIC50 (PI3K-delta),Compound
>10,7.85,"CCn1c(C(=O)NCCC(F)(F)F)nc2c(N[C@H]3CCN(C(=O)C4CC4)C3)ncnc21 [Compound 6-17, 6-{[(3S)-1-(cyclopropylcarbonyl)pyrrolidin-3-yl]amino}-9-ethyl-N-(3,3,3-trifluoropropyl)-9H-purine-8-carboxamide]"
>10,> 9.00,"CCn1c(-c2cnc(C)nc2)nc2c(N[C@H]3CCN(C(=O)C4CC4CF)C3)ncnc21 (mixture of isomers) [Compound 2-37, ((S)-3-((9-ethyl-8-(2-methylpyrimidin-5-yl)-9H-purin-6-yl)amino)pyrrolidin-1-yl)((1S,2S and 1R,2R)-2-(fluoromethyl)cyclopropyl) methanone]"
>10,8.41,"CCn1c(-c2cnc(C)nc2)nc2c(N[C@H]3CCN(C(=O)OC4CCCCC4)C3)ncnc21 [Compound 13-8, cyclohexyl (3S)-3-{[9-ethyl-8-(2-methylpyrimidin-5-yl)-9H-purin-6-yl]amino}pyrrolidine-l-carboxylate]"
>10,7.20,"CCn1c(C#CCOC)nc2c(N[C@H]3CCN(C(=O)C4CC4)C3)ncnc21 [Compound 16-3, N-[(3S)-1-(cyclopropylcarbonyl)pyrrolidin-3-yl]-9-ethyl-8-(3-methoxyprop-1-yn-1-yl)-9H-purin-6-amine]"
>10,7.72,"CCn1c(C(=O)N[C@H]2CC[C@H](O)CC2)nc2c(N[C@H]3CCN(C(=O)C4CC4)C3)ncnc21 [Compound 6-7, 6-{[(3S)-1-(cyclopropylcarbonyl)pyrrolidin-3-yl]amino}-9-ethyl-N-(trans-4-hydroxycyclohexyl)-9H-purine-8-carboxamide]"
>10,8.62,"CCn1c(C(F)F)nc2c(N[C@H]3CCN(C(=O)C4CC45CCCC5)C3)ncnc21 (single isomer, unassigned) [Compound 7-21, (S or R)-8-(difluoromethyl)-9-ethyl-N-[(3S)-1-(spiro[2.4]hept-1-ylcarbonyl)pyrrolidin-3-yl]-9H-purin-6-amine]"

# Further lines, the compound ahead of its results:
Compound,Selectivity versus PI3Kalpha (PI3K-alpha),pIC50 (PI3K-delta)
"CCn1ncc(-c2nc3c(N[C@H]4CCN(C(=O)c5nc(C)oc5C)C4)ncnc3n2C)c1C [Compound 2-5, N-{(3S)-1-[(2,5-dimethyl-1,3-oxazol-4-yl)carbonyl]pyrrolidin-3-yl}-8-(1-ethyl-5-methyl-1H-pyrazol-4-yl)-9-methyl-9H-purin-6-amine]",>10,8.82
"CCn1c(-c2cnc(C)nc2)nc2c(N[C@H]3CCN(C(=O)c4nnsc4C)C3)ncnc21 [Compound 2-71, 9-ethyl-8-(2-methylpyrimidin-5-yl)-N-{(3S)-1-[(5-methyl-1,2,3-thiadiazol-4-yl)carbonyl]pyrrolidin-3-yl}-9H-purin-6-amine]",>10,8.38
"CCn1c(-c2cnc(C)nc2)nc2c(N[C@H]3CCN(c4nccc5ccccc45)C3)ncnc21 [Compound 4-9, 9-ethyl-N-[(3S)-1-isoquinolin-1-ylpyrrolidin-3-yl]-8-(2-methylpyrimidin-5-yl)-9H-purin-6-amine]",>10,8.18
"CCn1c(-c2cnc(C)nc2)nc2c(N[C@H]3CCN(C(=O)C4CCC(=O)N4)C3)ncnc21 (mixture of isomers) [Compound 2-64, (R and S)-5-{[(3S)-3-{[9-ethyl-8-(2-methylpyrimidin-5-yl)-9H-purin-6-yl]amino}pyrrolidin-1-yl]carbonyl}pyrrolidin-2-one]",>10,8.17
"CCn1c(-c2cnc(C)nc2)nc2c(NC3CN(C(C)C)CC34CC4)ncnc21 (stereo not shown) [Compound 10-3, (R AND S)-9-ethyl-N-[5-(1-methylethyl)-5-azaspiro[2.4]hept-7-yl]-8-(2-methylpyrimidin-5-yl)-9H-purin-6-amine]",>10,7.02
